# Test results: the supplement of paper PMC10331698
# ± gives the standard deviation of the averaged measurements.
# Columns and labels:
# Test in all cases: level (log10 ratio to DMSO vehicle control); higher = higher biomarker level / cell amount than vehicle control
# Settings in all cases: in DMSO
# [1] = compound: CCN(CCO)S(=O)(=O)C(F)(F)C(F)(F)C(F)(F)C(F)(F)C(F)(F)C(F)(F)C(F)(F)C(F)(F)F [N-Ethyl-N-(2-hydroxyethyl)perfluorooctanesulfonamide]
# Method: (§1)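 BioMAP Diversity Plus panel of 12 human primary cell co-culture systems (3C, 4H, LPS, SAg, BT, BF4T, BE3C, CASM3C, HDF3CGF, KF3CT, MyoF, Mphg). Compounds were added 1 h before stimulation and left for 24 h (MyoF 48 h; BT 72 h for soluble read-outs or 6 d for IgG). Biomarkers were read by ELISA, cytotoxicity by SRB, PBMC viability and proliferation by Alamar Blue. Each well value was divided by the mean of 8 DMSO control wells on the same plate and log10 transformed; duplicate blinded samples were tested at 4 concentrations.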
# [2] = compound: O=C(O)C(F)(F)C(F)(F)C(F)(F)F [Perfluorobutanoic acid]
# Method: as §1
# [3] = compound: COC(=O)CCC(F)(F)C(F)(F)C(F)(F)C(F)(F)F [Methyl 2H,2H,3H,3H-perfluoroheptanoate]
# Method: as §1
# [4] = compound: FC(F)(F)C(F)(F)C(F)(F)C(F)(F)C(F)(F)CCI [1-Iodo-1H,1H,2H,2H-perfluoroheptane]
# Method: as §1
# [5] = compound: O=C(O)C(F)(F)C(F)(F)C(F)(F)C(F)(F)C(F)(F)C(F)(F)C(F)(F)C(F)(F)C(F)(F)F [Perfluorodecanoic acid]
# Method: as §1
# [6] = compound: OCCC(F)(F)C(F)(F)C(F)(F)C(F)(F)C(F)(F)C(F)(F)F [6:2 Fluorotelomer alcohol]
# Method: as §1
# [7] = compound: FC(F)(F)C(F)(C(F)(F)F)C(F)(F)C(F)(F)CC1CO1 [3-(Perfluoro-3-methylbutyl)-1,2-propenoxide]
# Method: as §1
# [8] = compound: FC(F)(F)C(F)(F)C(F)(F)C(F)(F)C(F)(F)C(F)(F)C(F)(F)C(F)(F)CCS [2-(Perfluorooctyl)ethanthiol]
# Method: as §1
Test System,level (log10) ([1]; 6700 nM),level (log10) ([1]; 20000 nM),level (log10) ([2]; 6700 nM),level (log10) ([2]; 20000 nM),level (log10) ([2]; 60000 nM),level (log10) ([3]; 6700 nM),level (log10) ([3]; 20000 nM),level (log10) ([3]; 60000 nM),level (log10) ([4]; 6700 nM),level (log10) ([4]; 20000 nM),level (log10) ([4]; 60000 nM),level (log10) ([5]; 6700 nM),level (log10) ([5]; 20000 nM),level (log10) ([6]; 6700 nM),level (log10) ([6]; 20000 nM),level (log10) ([7]; 6700 nM),level (log10) ([7]; 20000 nM),level (log10) ([8]; 6700 nM),level (log10) ([8]; 20000 nM)
MyoF:Collagen I,0.042 ± 0.0028,-0.155 ± 0.029,0.0075 ± 0.011,0.005 ± 0.042,0.0025 ± 0.012,0.0055 ± 0.016,0.0035 ± 0.011,-0.004 ± 0.021,-0.0065 ± 0.012,0.007 ± 0.0042,0.0375 ± 0.0035,-0.0065 ± 0.059,-0.417 ± 0.071,-0.0015 ± 0.0064,-0.003 ± 0.011,0 ± 0.0099,-0.017 ± 0.017,-0.001 ± 0.042,-0.0265 ± 0.029
KF3CT:MMP-9,0.01 ± 0.0085,-0.0875 ± 0.015,-0.01 ± 0.021,-0.0185 ± 0.019,0.0005 ± 0.013,-0.012 ± 0.047,-0.0145 ± 0.035,-0.024 ± 0.017,-0.017 ± 0.011,-0.0265 ± 0.025,-0.029 ± 0.021,-0.103 ± 0.037,-0.308 ± 0.0028,-0.007 ± 0.035,-0.0045 ± 0.015,-0.016 ± 0.03,-0.0265 ± 0.039,-0.029 ± 0.035,-0.0275 ± 0.037
lMphg:SRB-Mphg,0.0095 ± 0.00071,0.001 ± 0.021,-0.059 ± 0.054,-0.0275 ± 0.18,0.0175 ± 0.17,-0.0285 ± 0.012,-0.022 ± 0.095,0.04 ± 0.057,0.004 ± 0.0028,-0.0015 ± 0.0035,0.009 ± 0.013,0.0065 ± 0.00071,-0.005 ± 0.0085,-0.0055 ± 0.0064,-0.0255 ± 0.011,0.0005 ± 0.0092,0.0075 ± 0.0021,0.007 ± 0.0057,0.0105 ± 0.018
BE3C:tPA,0.142 ± 0.0099,-0.036 ± 0.058,-0.025 ± 0.025,-0.025 ± 0.04,-0.037 ± 0.0099,-0.006 ± 0.02,-0.016 ± 0.014,0.0005 ± 0.0078,-0.0055 ± 0.074,0.0465 ± 0.073,0.0495 ± 0.047,0.0215 ± 0.026,-0.546 ± 0.0085,-0.0135 ± 0.018,-0.004 ± 0.0057,-0.0215 ± 0.04,-0.037 ± 0.033,0.0105 ± 0.0064,0.0165 ± 0.016
KF3CT:PAI-I,-0.0995 ± 0.011,-0.193 ± 0.014,-0.0055 ± 0.0078,-0.019 ± 0.0014,0,-0.01 ± 0.013,-0.009 ± 0.0042,-0.0105 ± 0.0092,-0.007 ± 0.02,-0.014 ± 0.0071,-0.0245 ± 0.028,-0.0365 ± 0.023,-0.144 ± 0.042,-0.0155 ± 0.0035,-0.0035 ± 0.011,0 ± 0.035,-0.011 ± 0.037,-0.04,-0.0425 ± 0.023
lMphg:CXCL8/IL-8,-0.047 ± 0.048,-0.032 ± 0.016,-0.022 ± 0.014,-0.017 ± 0.0028,0.0165 ± 0.04,-0.0045 ± 0.018,-0.0025 ± 0.0064,-0.0005 ± 0.018,0.005 ± 0.0057,-0.01 ± 0.0099,0.0495 ± 0.025,0.0415 ± 0.049,0.04 ± 0.023,-0.0115 ± 0.056,-0.0125 ± 0.018,0.0165 ± 0.035,0.052 ± 0.023,-0.012 ± 0.016,0.008 ± 0.016
BE3C:PAI-I,-0.066 ± 0.0071,-0.092 ± 0.017,-0.011 ± 0.011,-0.025 ± 0.023,-0.0085 ± 0.0035,-0.0065 ± 0.025,-0.006 ± 0.044,-0.0055 ± 0.005,-0.025 ± 0.061,-0.0105 ± 0.056,0.008 ± 0.1,-0.0475 ± 0.013,-0.4 ± 0.047,-0.0205 ± 0.03,-0.025 ± 0.048,-0.0175 ± 0.0035,-0.0075 ± 0.013,-0.015 ± 0.044,-0.05 ± 0.011
HDF3CGF:Collagen I,0.0835 ± 0.03,0.112 ± 0.0092,-0.022 ± 0.025,-0.0105 ± 0.023,0.0175 ± 0.07,0.0615 ± 0.071,0.0465 ± 0.016,0.051 ± 0.041,0.003 ± 0.017,0.0055 ± 0.005,-0.093 ± 0.061,-0.02 ± 0.025,-0.0095 ± 0.04,-0.036 ± 0.057,-0.0445 ± 0.08,0.003 ± 0.078,-0.0135 ± 0.15,0.0055 ± 0.052,0.0125 ± 0.052
CASM3C:M-CSF,0.0045 ± 0.00071,0.0395 ± 0.0092,-0.0095 ± 0.0064,-0.0205 ± 0.013,0.0275 ± 0.063,-0.0155 ± 0.016,-0.031 ± 0.021,0.013 ± 0.054,-0.0055 ± 0.035,-0.0145 ± 0.011,-0.0265 ± 0.0092,0.0145 ± 0.0078,0.0345 ± 0.019,-0.018 ± 0.0014,0.019 ± 0.016,-0.0175 ± 0.0021,0.008 ± 0.042,0.013 ± 0.0014,0.047 ± 0.014
CASM3C:CXCL9/MIG,-0.0675 ± 0.005,-0.166 ± 0.073,0.001 ± 0.0028,-0.004 ± 0.0028,0.007 ± 0.0057,-0.006 ± 0.0085,0.0035 ± 0.0035,0.015 ± 0.0028,-0.007 ± 0.0042,-0.0025 ± 0.0021,0.008 ± 0.011,-0.012 ± 0.0028,-0.0055 ± 0.0064,-0.011 ± 0.025,-0.0165 ± 0.0035,-0.015 ± 0.014,-0.001 ± 0.017,-0.0025 ± 0.023,0.0395 ± 0.0064
KF3CT:CXCL10/IP-10,-0.0395 ± 0.022,-0.107 ± 0.015,0.008 ± 0.0042,-0.005 ± 0.0014,-0.002 ± 0.0028,0.005 ± 0.02,-0.003 ± 0.0014,-0.005 ± 0.0014,0.0035 ± 0.00071,0.001 ± 0.013,-0.0185 ± 0.00071,-0.044 ± 0.017,-0.134 ± 0.028,0.0105 ± 0.0092,0.006 ± 0.014,-0.009 ± 0.016,-0.026 ± 0.014,-0.025 ± 0.0042,-0.01 ± 0.0057
HDF3CGF:CXCL9/MIG,-0.0065 ± 0.015,-0.159 ± 0.023,-0.005 ± 0.021,-0.014 ± 0.0028,0.012 ± 0.024,0.014,0.0255 ± 0.021,-0.0225 ± 0.013,-0.0255 ± 0.044,-0.0445 ± 0.0092,-0.149 ± 0.11,-0.069 ± 0.048,-0.27 ± 0.061,-0.0015 ± 0.023,0.001 ± 0.0028,0.0165 ± 0.012,0.0155 ± 0.016,-0.0085 ± 0.0078,-0.0125 ± 0.0092
